# Measurements: article PMC8205077, “Phenyl-substituted aminomethylene-bisphosphonates inhibit human P5C reductase and show antiproliferative activity against proline-hyperproducing tumour cells” (Journal of Enzyme Inhibition and Medicinal Chemistry, 2021)
# Structures can show the parent of a compound that is named as a salt. Where two headings read alike, the source gives them in different places.
# What was measured:
# [1] = target: T1, human P5C reductase 1 (PYCR1) (Homo sapiens, UniProt P32322); assay: P5C reductase assay (P5C-dependent oxidation of NAD(P)H); assay type: biochemical; details: for effect on the activity of human P5C reductase: at concentrations as low as 1 μM
# T1 construct: His-tag; made in house; host or cells: E. coli BL21(DE3) pLysS
# T1 sequence (P32322 1-319): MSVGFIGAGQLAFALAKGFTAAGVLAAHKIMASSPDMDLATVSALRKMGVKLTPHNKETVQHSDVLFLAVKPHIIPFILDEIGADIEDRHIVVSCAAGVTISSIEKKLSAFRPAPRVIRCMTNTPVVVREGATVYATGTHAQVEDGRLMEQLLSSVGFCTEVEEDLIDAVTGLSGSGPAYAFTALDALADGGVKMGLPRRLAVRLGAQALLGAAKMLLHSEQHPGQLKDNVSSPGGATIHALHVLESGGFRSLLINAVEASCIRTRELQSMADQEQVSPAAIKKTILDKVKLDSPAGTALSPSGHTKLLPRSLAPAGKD
# Protocol: The gene coding for P5C reductase 1 (PYCR1, gene ID 5831), cloned into the expression vector pET28a^+[34], was kindly provided by prof. Zihe Rao (Tsinghua University, China). For heterologous expression, E. coli BL21(DE3) pLysS cells (Invitrogen) were made competent by the calcium chloride method, transformed with the recombinant vector and selected on kanamycin-containing LB plates. About 6 h after inducing gene expression in liquid LB medium at 24 °C by the addition of 1 mM isopropyl-D-thiogalactopyranoside, cells were harvested by centrifugation and stored at −20 °C. Aliquots (about 1 g cell material) were lysed in an ice-cold mortar with 2 g g^−1 alumina and resuspended in 20 mL g^−1 extraction buffer (50 mM Na phosphate buffer, pH 7.5, containing 200 mM NaCl and 20 mM imidazole). The His-tagged protein was purified from clarified extracts by affinity chromatography onto a His-Trap^TM FF column (1 mL, GE Healthcare 17–5319-01). Stepwise elution was achieved by increasing concentrations of imidazole in extraction buffer. Discontinuous SDS–polyacrylamide gel electrophoresis was performed at 8 mA with a 5% stacking and a 12% separating gel, using a Minigel system (BioRad). Samples were mixed with the same volume of 125 mM Tris–HCl buffer (pH 6.8) containing 4% (w/v) SDS, 20% (v/v) glycerol and 10% (v/v) β-mercaptoethanol, and denatured 5 min at 100 °C. Proteins were visualised by soaking gels in Quick Coomassie Stain (CliniSciences) overnight.
# Enzyme activity was measured at 30 °C as the P5C-dependent oxidation of NAD(P)H. Assays were performed in 96-microwell plates in a final volume of 0.2 mL. The assay mixture contained 4 mM DL-P5C and 0.5 mM of either NADH or NADPH in 50 mM Tris-HCl buffer, pH 7.5. Parallel blanks were performed in which P5C had been omitted. The decrease of absorbance was measured for 5 min at 0.5-min intervals using a Ledetect plate reader (Labexim, Lengau, Austria) equipped with a LED plugin at 340 nm. Residual NAD(P)H content was estimated on the basis of calibration curves obtained under the same conditions. Activity was calculated by linear regression of data using Prism 6 for Windows, version 6.03 (GraphPad Software, San Diego, CA); one unit of activity was defined as the amount of enzyme that catalyses the P5C-dependent oxidation of 1 nmol NAD(P)H s^−1 (nkat). Proteins were measured by the Coomassie Brilliant Blue method, using bovine serum albumin as the standard. To evaluate substrate affinity, invariable substrates were fixed at the same levels as in the standard assay. For variable substrates, L-P5C ranged from 400 to 2000 μM, while the concentration of NADH and NADPH ranged from 125 to 500 μM. To evaluate the inhibition brought about by pargylines and aminomethylene-bisphosphonates, freshly prepared 10 mM stock solution in water and 100 mM Tris-HCl buffer pH 7.5, respectively, were diluted with water and added to the reaction mixture before enzyme addition. Parallel control samples were carried out in the absence of any inhibitor. Activity was calculated as described above. Mean activity value in controls was set as 100%, and activity in treated samples was expressed as percent of such value. Percent values were plotted against the logarithm of inhibitor concentration, and data were interpolated using the equation Y = 100/(1 + 10^∧((LogIC50-X)*HillSlope)). Assays were performed in triplicate (technical replications). Each experiment was repeated at least twice with different enzyme preparations (biological replicates). KM and Vmax values, as well as the concentrations causing 50% inhibition (IC50), KI values and their confidence intervals were estimated by non-linear regression analysis using Prism 6.
# [2] = target: human P5C reductase; details: cited from earlier work
# [3] = test system: human myelogenous erythroleukemic K562 cells; assay: Antiproliferative assay, K562 cells; assay type: cell-based; details: for IC50: Homo sapiens, K562
# Protocol: (§1) Human myelogenous erythroleukemic K562 cells[36] were cultured in a humidified atmosphere of 5% CO2/air either in complete RPMI 1640 medium (Lonza, Verviers, Belgium) or in a modified medium without L-proline (United States Biological, Massachusetts, USA), both supplemented with 10% foetal bovine serum (FBS; Biowest, Nuaillé, France), 100 U mL^−1 penicillin and 100 μg mL^−1 streptomycin. Human epithelial breast cancer MDA-MB-231 cells[37] were cultured under the same conditions in DMEM medium (Lonza, Verviers, Belgium) supplemented with 10% FBS, 100 U mL^−1 penicillin, 100 μg mL^−1 streptomycin and 2 mM L-glutamine.
# (§2) K562 cells in the late exponential phase of growth were seeded in 1 mL medium without FBS in 24-well plates to an initial density of about 20,000 cells mL^−1. Treatments with Br2PAMBPA in the range 1–200 µM were carried out 5 h after seeding. Cell growth was monitored at increasing time after the treatment by determining cell density on 50-μL aliquots with a Z1 Coulter Counter (Coulter Electronics), considering a dimensional range between 8 and 20 μm. MDA-MB-231 cells in the late exponential phase of growth (90% confluence) were washed with sterile PBS, incubated with sterile trypsin-EDTA solution (Sigma-Aldrich, Saint Louis, USA) for 2 min, resuspended in fresh DMEM medium and centrifuged at 1000 g at room temperature for 5 min. Pellets were resuspended in sterile PBS and spun again to remove any residue of trypsin. Cells were finally resuspended in DMEM medium without FBS, and seeded in 24-well plates in a final volume of 1 mL to an initial density of about 20,000 cells mL^−1. Treatments with Br2PAMBPA in the range 1–200 µM were carried out 5 h after seeding, and 2% FBS was added to each well 24 h thereafter. Cell growth was monitored at increasing time after the treatment by destructive harvest. For both cell lines each treatment was carried out at least in triplication, and each experiment was performed at least twice.
# [4] = test system: K562 cells; assay: Cell viability assay (Trypan Blue exclusion), K562 cells; assay type: cell-based, human; details: modified RPMI medium not containing proline, 96 h after the inoculum
# Protocol: Cell viability was assessed by the Trypan Blue exclusion test[38]. Stained cells were counted in a Bürker chamber. Viable and nonviable cells were recorded separately, and the results of three independent counts were pooled. Data were expressed as percent of alive cells.
# [5] = test system: K562 cells; assay: Measurement of intracellular free proline and P5C levels, K562 cells; assay type: cell-based, human
# Protocol: For proline and P5C quantification, treatments were carried out in T-25 flasks containing 10 mL medium. Cells were harvested by centrifugation at 1000 g for 5 min at RT. Each pellet was resuspended in 1.4 mL of sterile PBS and spun again to remove the medium. Washed pellets were transferred on ice, resuspended in a minimal volume of a 3% (w/v) solution of 5-sulfosalicylic acid and subjected to various freeze-thaw cycles to induce rupture of the phospholipid membrane. Cell debris were sedimented by centrifugation at 12,000 g for 5 min at RT, and the supernatants were analysed by the acid ninhydrin method of Williams and Frank, as described.
# [6] = test system: human epithelial breast cancer MDA-MB-231 cells; assay: Antiproliferative assay, MDA-MB-231 cells; assay type: cell-based
# Protocol: as §1
# as §2, with “Cells were finally resuspended in DMEM medium without FBS, and seeded in 24-well plates in a final volume of 1 mL to an initial density of about 20,000 cells mL^−1.” left out
# [7] = target: glutamine synthetase; details: human enzyme; cited from earlier work
# [8] = test system: breast cancer cell; details: at 10 μM; cited from earlier work
# [9] = IC50, NADH as the electron donor
# [10] = IC50, NADPH as the electron donor
# [11] = IC50 values, abstract, cofactor not specified
# [12] = treated serum-free, 2% FBS added 24 h thereafter
structure (smiles),measurement,setting,value
"C#CCN(C)Cc1ccccc1 [Pargyline, N-methyl-N-(2-propynyl)benzylamine hydrochloride, reference compound]",IC50,[1]; [9],> 10000 µM
same,IC50,[1]; [10],81 µM
same,IC50,[2]; listed as pargylin,200 µM
same,IC50,[2]; listed as pargyline,198 µM
"O=P(O)(O)C(Nc1cc(Br)cc(Br)c1)P(=O)(O)O [Br2PAMBPA, 3,5-dibromophenylaminomethylene-bisphosphonic acid]",type of inhibition with NADH as the variable substrate,[1],mixed-type
same,IC50,[1]; [9],0.48 ± 0.03 µM
same,IC50,[1]; [10],0.39 ± 0.03 µM
same,IC50,[1]; [11],< 1 µM
same,Ki,[1]; NADH as variable substrate (Fig. 4D),0.66 ± 0.21 µM
same,Ki,[1]; NADPH as variable substrate (Fig. 4C),0.48 ± 0.08 µM
same,Ki,"[1]; P5C as variable substrate, NADH as electron donor (Fig. 4B)",0.12 ± 0.01 µM
same,Ki,"[1]; P5C as variable substrate, NADPH as electron donor (Fig. 4A)",0.32 ± 0.02 µM
same,mechanism of inhibition against both P5C and NADPH,[1]; abstract,competitive type
same,effect on the activity of human P5C reductase,[1],almost completely suppressed
same,type of inhibition against P5C,[1]; with NADPH or NADH as the electron donor,competitive type
same,IC50,"[3]; modified RPMI medium not containing proline, read-out: concentration giving 50%-inhibition of growth",~20 µM
same,IC50,"[3]; unmodified RPMI medium containing 20 mg L^−1 (174 μM) Pro, read-out: concentration giving 50% inhibition of growth",~7 µM
same,concentrations progressively impairing growth,[3]; abstract,10^−6 to 10^−4 M
same,concentration range in which growth was inhibited,[3]; modified RPMI medium not containing proline,2 to 200 µM
same,concentrations at which cell viability was significantly reduced,[4],exceeding 50 µM
same,levels of P5C,"[5]; all cases, detection limit printed as > 1 nmol [10^6 cells]^−1",no detectable
same,free proline concentration,"[5]; control and treated K562 cells, with or without exogenous proline",4–5 nmol (10^6 cells)^−1
same,intracellular levels of free proline vs controls,"[5]; modified RPMI medium not containing proline, 96 h after the inoculum",not significantly different than in controls
same,reduction of free proline content with respect to viable cells,"[5]; unmodified RPMI medium with 20 mg L^−1 Pro, at 50 µM",less than 50%
same,free proline content with respect to viable cells,"[5]; unmodified RPMI medium with 20 mg L^−1 Pro, up to 50 µM",no reduction was evident
same,effect on cell proliferation in standard medium,"[6]; DMEM with FBS, concentrations exceeding 50 μM, preliminary, data not shown",only mild effects
same,concentrations progressively impairing growth,[6]; abstract,10^−6 to 10^−4 M
same,concentration from which cell growth rate and maximal cell density were progressively reduced,[6]; [12],≥ 5 µM
same,concentration from which cell proliferation was completely abolished,[6]; [12],≥ 50 µM
"O=P(O)(O)C(Nc1cc(Cl)cc(Cl)c1)P(=O)(O)O [3,5-Cl2PAMBPA]",IC50,[1]; [9],0.78 ± 0.04 µM
same,IC50,[1]; [10],0.74 ± 0.06 µM
same,IC50,[1]; [11],< 1 µM
same,mechanism of inhibition against both P5C and NADPH,[1]; abstract,competitive type
same,effect on the activity of human P5C reductase,[1],almost completely suppressed
same,IC50,[7],780 ± 30 µM
"C#CCN(C)Cc1ccc(Br)cc1 [4-bromopargyline, reference compound]",IC50,[1]; [9],234 ± 28 µM
same,IC50,[1]; [10],9 µM
same,IC50,"[1]; NADPH as the electron donor, read-out: IC50",8.7 ± 0.8 µM
same,IC50,[2],9 µM
same,reduction of breast cancer cell proliferation,[8],30–40%
